The text below walks through data of US10596109B2 (Abela Pharmaceuticals, Inc., priority 2009, dated 2020).

For data set [1], the system named is S. pyogenes. Description: Bacterial viability by bioluminescent ATP assay, 18 hours culture. The note with it: MSM alone at 8%.
For data set [2], the system named is S. pneumonia. In words: Bacterial viability by bioluminescent ATP assay, 7 hours culture.
For data set [3], the system named is S. pneumonia. Conditions: Streptococcus pneumonia, 7 h.
Data set [4] deals with S. pyogenes. Conditions: Streptococcus pyogenes, 18 h.

Read-outs that look alike come from different tables or passages of the source.

Regarding `CS(C)(=O)=O` [MSM, Methylsulfonylmethane], the “Reduction in bacterial viability (estimated)” value in data set [1] is reported as “approximately 89%”. Also, the “Reduction in bacterial viability” value in data set [2] (MSM 5% alone) is ~5%. Further, the S. pneumonia viability in data set [2] (MSM 10%) is 48.57%; in data set [2] (MSM 20%), 39.08%.
As to `C[S+](C)[O-]` [DMSO, Dimethyl sulfoxide], the S. pneumonia viability in data set [3] (5 %) is 75.45%; in data set [3] (10 %), 40.18%. The S. pyogenes viability is reported as 100% in data set [4] (0.63 %); 100% in data set [4] (1.25 %); 14.50% in data set [4] (10 %); 5.14% in data set [4] (20 %); 100% in data set [4] ([…]). The “Reduction in bacterial viability” value in data set [2] (DMSO 5% alone) was “approximately 25%”.
